In patent US12611378B2 (Bausch Health Ireland Limited, priority 2020, dated 2026):

Assay: Regional bioavailability of rifaximin, open-label 5-way crossover study in healthy male subjects
Type: in vivo, human
Conditions: based on comparisons of AUC0-24 with AUCact-24, geometric mean
Source text: Blood samples were collected pre-dose and at specified time points after dosing for PK analysis.

Frel (Regimen B: 150 mg rifaximin SSD delivered to the proximal small bowel): 36.4% | Frel (Regimen C: 150 mg rifaximin SSD delivered to the distal small bowel): 2.09% | Frel (Regimen D: 150 mg rifaximin SSD delivered to the colon): 0.216% | Frel (Regimen E: 150 mg rifaximin SSD delivered to the mid small bowel): 7.08%
SMILES: CO[C@H]1/C=C/O[C@@]2(C)Oc3c(C)c(O)c4c(O)c(c5c(nc6cc(C)ccn65)c4c3C2=O)NC(=O)/C(C)=C\C=C\[C@H](C)[C@H](O)[C@@H](C)[C@@H](O)[C@@H](C)[C@H](OC(C)=O)[C@@H]1C [Rifaximin, 4-Deoxy-4′-methylpyrido[1′,2′-1,2]imidazo[5,4-c]rifamycin SV]
